Source: patent US6835401B2, “Method of treating diseases caused by over-production of free-radicals” (Pharmaton SA, priority 2000, dated 2004)

Tested on: glutathione peroxidase (GSH-PX)
Assay: Glutathione peroxidase (GSH-PX) activity in keratinocytes
Assay type: cell-based, human
Details: 50 nM Se (sodium selenite 50 nM; selenium yeast 3.95 μg/ml), control cells
Procedure: Cultures were maintained at 37° C. in a humidified 5% CO2 atmosphere.

SMILES: O=[Se](O)O [sodium selenite]
- GSH-PX activity: 91.44±10.37 mU/mg protein
- induction of GSH-PX activity, fold increase vs controls (48 h): 3.365 fold
